Patent publication US20040266623A1, “SYNERGISTIC QUINCLORAC HERBICIDAL COMPOSITIONS” (priority 2003, published 2004)

Key:
Experiment in all cases: Greenhouse pot test, postemergent spray, visual control rating converted to percent control
Type in all cases: in vivo
dandelion = test system: dandelion
Method: (§1) Pots of crabgrass, dandelion, white clover, and plantain grown in greenhouse soiless growth media were sprayed with a greenhouse pot sprayer at 43.46 gallons of spray solution/acre and allowed to stand in the greenhouse. Visual observation of the effects made by the herbicidal compositions on the plants in the test pots was recorded for control of crabgrass, dandelion, clover and plantain at 24 hours after treatment (HAT), 48 hours after treatment (HAT), 72 hours after treatment (HAT), 7 days after treatment (DAT), 14 days after treatment (DAT) and 21 days after treatment (DAT). A control rating scale of 1 to 9 was used to record the visual observation of the effect of the herbicidal composition on the plants over the time period of the tests. 1=no control, and 9=death of plant, with intervening numbers representing successive degrees of observed effectiveness of the herbicidal composition over time. The 1-9 control rating scale was converted to percent control in the test data charts that follow.
(§2) The test protocol of S. R. Colby as set out in his article entitled “Calculating Synergistic and Antagonistic Responses of Herbicide Compositions,” received for publication Apr. 11, 1966, Contribution No. 3796 and Scientific Article No. 1271 of the Maryland Agricultural Experiment Station, Department pf Agronomy, University of Maryland was followed to evaluate the synergistic properties of the combination of quinclorac plus a herbicidal protox inhibitor, and a combination of quinclorac, plus a herbicidal protox inhibitor plus a herbicidal auxinic agent as compared with the individual herbicides, using Colby's formulas E=X+Y−XY/100 for a two herbicide combination, where E=the expected percent of inhibition of growth by herbicides, X=the percent inhibition of growth by herbicide A at p lb/A, and Y=the percent inhibition of growth by herbicide B at q lb/A, for a given combination of two herbicides. Colby's formula E=X+Y+Z−(XY+XZ+YZ)/100+XYZ/10,000, was used for the three-way herbicide combination evaluation, where E, X and Y are the same as in the two herbicide formula and Z=the percent inhibition of growth by the third herbicide.

crabgrass = test system: crabgrass
Method: as §1, §2

white clover = test system: white clover
Method: as §1, §2

plantain = settings: 1.10 lbs/A
Method: as §1, §2

SMILES: CC(C)CCCCCOC(=O)COc1ccc(Cl)cc1Cl [2,4-D IOE]
- % Control Dandelion (dandelion; Test 1, 7 DAT, 0.70 lbs/A): 66.7%
- Control (1-9) Dandelion (dandelion; Test 1, 7 DAT, 0.70 lbs/A): 6
- % Control Dandelion (dandelion; Test 1, 14 DAT, 0.70 lbs/A): 100.0%
- Control (1-9) Dandelion (dandelion; Test 1, 14 DAT, 0.70 lbs/A): 9
- % Control Dandelion (dandelion; Test 1, 24 HAT, 0.70 lbs/A): 33.3%
- Control (1-9) Dandelion (dandelion; Test 1, 24 HAT, 0.70 lbs/A): 3
- % Control Dandelion (dandelion; Test 1, 48 HAT, 0.70 lbs/A): 44.4%
- Control (1-9) Dandelion (dandelion; Test 1, 48 HAT, 0.70 lbs/A): 4
- % Control Dandelion (dandelion; Test 2, 7 DAT, 0.70 lbs/A): 88.9%
- Control (1-9) Dandelion (dandelion; Test 2, 7 DAT, 0.70 lbs/A): 8
- % Control Dandelion (dandelion; Test 2, 14 DAT, 0.70 lbs/A): 100.0%
- Control (1-9) Dandelion (dandelion; Test 2, 14 DAT, 0.70 lbs/A): 9
- % Control Dandelion (dandelion; Test 2, 24 HAT, 0.70 lbs/A): 33.3%
- Control (1-9) Dandelion (dandelion; Test 2, 24 HAT, 0.70 lbs/A): 3
- % Control Dandelion (dandelion; Test 2, 72 HAT, 0.70 lbs/A): 66.7%
- Control (1-9) Dandelion (dandelion; Test 2, 72 HAT, 0.70 lbs/A): 6
- % Control Crabgrass (crabgrass; Test 1, 7 DAT, 0.70 lbs/A): 44.4%
- Control (1-9) Crabgrass (crabgrass; Test 1, 7 DAT, 0.70 lbs/A): 4
- % Control Crabgrass (crabgrass; Test 1, 14 DAT, 0.70 lbs/A): 33.3%
- Control (1-9) Crabgrass (crabgrass; Test 1, 14 DAT, 0.70 lbs/A): 3
- % Control Crabgrass (crabgrass; Test 1, 24 HAT, 0.70 lbs/A): 22.2%
- Control (1-9) Crabgrass (crabgrass; Test 1, 24 HAT, 0.70 lbs/A): 2
- % Control Crabgrass (crabgrass; Test 1, 48 HAT, 0.70 lbs/A): 44.4%
- Control (1-9) Crabgrass (crabgrass; Test 1, 48 HAT, 0.70 lbs/A): 4
- % Control Crabgrass (crabgrass; Test 2, 7 DAT, 0.70 lbs/A): 22.2%
- Control (1-9) Crabgrass (crabgrass; Test 2, 7 DAT, 0.70 lbs/A): 2
- % Control Crabgrass (crabgrass; Test 2, 14 DAT, 0.70 lbs/A): 22.2%
- Control (1-9) Crabgrass (crabgrass; Test 2, 14 DAT, 0.70 lbs/A): 2
- % Control Crabgrass (crabgrass; Test 2, 24 HAT, 0.70 lbs/A): 33.3%
- Control (1-9) Crabgrass (crabgrass; Test 2, 24 HAT, 0.70 lbs/A): 3
- % Control Crabgrass (crabgrass; Test 2, 72 HAT, 0.70 lbs/A): 66.7%
- Control (1-9) Crabgrass (crabgrass; Test 2, 72 HAT, 0.70 lbs/A): 6
- % Control Clover (white clover; Test 1, 7 DAT, 0.70 lbs/A): 44.4%
- Control (1-9) Clover (white clover; Test 1, 7 DAT, 0.70 lbs/A): 4
- % Control Clover (white clover; Test 1, 14 DAT, 0.70 lbs/A): 88.9%
- Control (1-9) Clover (white clover; Test 1, 14 DAT, 0.70 lbs/A): 8
- % Control Clover (white clover; Test 1, 24 HAT, 0.70 lbs/A): 11.1%
- Control (1-9) Clover (white clover; Test 1, 24 HAT, 0.70 lbs/A): 1
- % Control Clover (white clover; Test 1, 48 HAT, 0.70 lbs/A): 44.4%
- Control (1-9) Clover (white clover; Test 1, 48 HAT, 0.70 lbs/A): 4
- % Control Clover (white clover; Test 2, 7 DAT, 0.70 lbs/A): 66.7%
- Control (1-9) Clover (white clover; Test 2, 7 DAT, 0.70 lbs/A): 6
- % Control Clover (white clover; Test 2, 14 DAT, 0.70 lbs/A): 100.0%
- Control (1-9) Clover (white clover; Test 2, 14 DAT, 0.70 lbs/A): 9
- % Control Clover (white clover; Test 2, 24 HAT, 0.70 lbs/A): 33.3%
- Control (1-9) Clover (white clover; Test 2, 24 HAT, 0.70 lbs/A): 3
- % Control Clover (white clover; Test 2, 72 HAT, 0.70 lbs/A): 66.7%
- Control (1-9) Clover (white clover; Test 2, 72 HAT, 0.70 lbs/A): 6

SMILES: Cc1cc(Cl)ccc1OCC(=O)OCCCCCC(C)C [MCPA IOE]
- % Control Dandelion (dandelion; Test 4, 7 DAT, 1.10 lbs/A): 44.4%
- Control (1-9) Dandelion (dandelion; Test 4, 7 DAT, 1.10 lbs/A): 4
- % Control Dandelion (dandelion; Test 4, 14 DAT, 1.10 lbs/A): 55.6%
- Control (1-9) Dandelion (dandelion; Test 4, 14 DAT, 1.10 lbs/A): 5
- % Control Crabgrass (crabgrass; Test 4, 7 DAT, 1.10 lbs/A): 11.1%
- Control (1-9) Crabgrass (crabgrass; Test 4, 7 DAT, 1.10 lbs/A): 1
- % Control Crabgrass (crabgrass; Test 4, 14 DAT, 1.10 lbs/A): 11.1%
- Control (1-9) Crabgrass (crabgrass; Test 4, 14 DAT, 1.10 lbs/A): 1
- % Control Plantain (plantain; Test 4, 7 DAT): 66.7%
- Control (1-9) Plantain (plantain; Test 4, 7 DAT): 6
- % Control Plantain (plantain; Test 4, 14 DAT): 66.7%
- Control (1-9) Plantain (plantain; Test 4, 14 DAT): 6
- % Control Clover (white clover; Test 4, 7 DAT, 1.10 lbs/A): 66.7%
- Control (1-9) Clover (white clover; Test 4, 7 DAT, 1.10 lbs/A): 6
- % Control Clover (white clover; Test 4, 14 DAT, 1.10 lbs/A): 100.0%
- Control (1-9) Clover (white clover; Test 4, 14 DAT, 1.10 lbs/A): 9
